In patent US7585893B2, “Anti-cancer composition comprising DMXAA or related compound” (Cancer Research Technology Limited, priority 2002, dated 2009):
Values joined by “and” are separate entries in the source; they are usually repeats but may differ in a detail not shown here. Equal entries are not always repeated. Where two headings read alike, the source gives them in different places.

Key:
[1] = oral; Zhao et al; cited from earlier work
[2] = tested on: HT29 human colon cancer cells; test: HT29 human colon carcinoma xenograft, oral dosing (Experiment 3); assay type: in vivo; settings: HT29 xenograft in nude mice; 28 mg/kg oral, or 28 + 15 + 15 mg/kg at 0, 4, 8 h
Experimental: Nude mice were implanted with 5×10^6 HT29 human colon cancer cells, subcutaneously. […] Tumours were then measured using callipers every 2-3 days and volumes calculated. Comparative tumour growth curves are plotted with respect to those at the onset of treatment (relative tumour volume).

tumour = settings: Zhao et al, cited from earlier work
Colon 38 tumour = Colon 38 tumour growth delay, oral DMXAA (Experiments I and II); assay type: in vivo, C57B1/6 mice; settings: for mice cured completely: 30+15+15 mg/kg orally at 0, 4, 8 h
Experimental: C57B1/6 mice from the Animal Resource Unit, University of Auckland, were bred and housed under conditions of constant temperature and humidity, with sterile bedding and food, according to institutional ethical guidelines. All mice were aged between 8 and 12 weeks.
DMXAA was synthesized as the sodium salt (Rewcastle et al (1990) Journal of National Cancer Institute 82:528-529). DMXAA sodium salt was dissolved in sterile water and was administered orally by gavage.
Colon 38 tumour fragments (˜1 mm^3) were implanted subcutaneously (s.c.) in the left flank of anaesthetized (sodium pentobarbital, 81 mg/kg) mice. The experiments were initiated when tumours were approximately 3-4 mm (approximately 20 mg mass) in diameter. Tumour-bearing mice were treated with drugs according to the administration schedule described before, and the tumours measured using calipers, three times weekly thereafter. Tumour volumes were calculated as O.52a^2b, where a and b are the minor and major axes of the tumour, respectively. For graphical representation the arithmetic means were calculated for each time point, counting cured tumours as zero volume.
Two groups of 5 mice were implanted with tumours. The treatment group received DMXAA according to the schedule shown, the control group received no DMXAA. The individual mice in each group were not marked, and so any one line of the spreadsheet data shown in Table 1 could be from any individual mouse of a particular group.
The data were normalised, to enable plotting of the average tumour growth beginning from a relative size of 1 (see FIG. 1).
This example was performed using four groups of mice. Group 1 (control, n=5) received no treatment. Group 2 (n=5) received two 15 mg/kg doses of DMXAA. Group 3 (n=5) received a single 30 mg/kg dose of DMXAA. Group 4 (n=6) received three doses of DMXAA in concentrations of 30+15+15 mg/kg. In this experiment tumours were all 14 mm^3 at the start of the experiment. Data were normalised by division by 14 to give size relative to initial size.
The tumour growth delay experiment was conducted using 2 drug regimes: untreated controls (n=5) and oral DMXAA (n=5) administered in 3 doses. The first dose (30 mg/kg), was administered at t=0 hours followed by two lower doses each of 15 mg/kg at t=4 hours and t=8 hours respectively. Tumour size was measured thrice weekly and the results normalised as described above. The results are shown in Table 1 (raw data), Table 2 (normalised data) and FIG. 1, Expt. I (plotted as a graph).
In this example, the tumour growth delay experiment was conducted using 4 drug regimes: untreated controls (Group 1, n=5); two 15 mg/kg doses of DMXAA separated by a 4 hour interval (Group 2, n=5); a single 30 mg/kg dose of DMXAA (Group 3, n=5); three doses of DMXAA in concentrations of 30+15+15 mg/kg administered at t=0, 4 and 8 hours respectively (Group 4, n=6). The 30 mg/kg dose is the maximum tolerated single dose Zhao et al (Cancer Chemother Pharmacol. 2002 January; 49(1):20-6). Tumour size was measured thrice weekly and the results normalised as described above. The results are shown in Table 3 (raw data), Table 4 (normalised data) and FIG. 1, Expt. II (plotted as a graph).

tumour blood flow = settings: Phase I clinical trials; well-tolerated doses; cited from earlier work

Cc1ccc2c(=O)c3cccc(CC(=O)O)c3oc2c1C [DMXAA, 5,6-dimethylxanthenone-4-acetic acid]
maximum tolerated single dose [1]: 30 mg/kg
antitumour activity by the oral route [2]: induces antitumour activity
cures (tumour; intraperitoneal administration): 40%
cures (tumour; single dose orally administered): no cures
side effects of multiple dose strategy (Colon 38 tumour; 30+15+15 mg/kg orally): without the serious side effects
mice cured completely (Colon 38 tumour; Expt I, within 24 days): 4/5
Tumor volume (Colon 38 tumour; Expt I, 30+15+15 mg/kg orally at 4 h intervals, 0 day, individual mice, 15 mg/kg): 6.3 mm^3 and 18.8 mm^3 (2×) and 14.1 mm^3 (2×)
Tumor volume (Colon 38 tumour; Expt II, 30 mg/kg orally single dose, 0 day): 14.0 mm^3
tumour growth over time-course (Colon 38 tumour; Expt II, 2×15 mg/kg oral doses, 4 h interval): tumours continued to grow
Tumor volume (Colon 38 tumour; Expt II, 15 − 15 mg/kg orally, 4 h interval, 0 day): 14.0 mm^3
mice cured completely (Colon 38 tumour; Expt II, within 17 days): 6/6
Tumor volume (Colon 38 tumour; Expt II, 30 − 16 − 15 mg/kg orally, 0 day): 14.0 mm^3
Tumor volume (Colon 38 tumour; Expt II, 30 − 16 − 15 mg/kg orally, 17 day): 0.0 mm^3
Normalised tumour size (relative to initial size) (Colon 38 tumour; Expt II, oral 30 mg/kg single dose, day 0): 1
Normalised tumour size (relative to initial size) (Colon 38 tumour; Expt II, oral 15 − 15 mg/kg, day 0): 1
Normalised tumour size (relative to initial size) (Colon 38 tumour; Expt II, oral 30 − 15 − 15 mg/kg, day 0): 1
Normalised tumour size (relative to initial size) (Colon 38 tumour; Expt II, oral 30 − 15 − 15 mg/kg, day 17): 0
tumour growth over time-course (Colon 38 tumour; Expt II, single 30 mg/kg oral dose): tumours continued to grow
tumour blood flow (dynamic MRI) (tumour blood flow): significant reduction in tumour blood flow
